These results are taken from US20130096097A1, “PHARMACEUTICAL MULTIMERIC PARTICLES, AND MANUFACTURING METHOD FOR SAME” (JAPAN SCIENCE AND TECHNOLOGY AGENCY, priority 2010, published 2013).

The test system of data set [1] is Human liver cancer cell lines HepG2. As to the kind of experiment: In vitro anticancer activity, cell viability by Cell Counting Kit-8. Particulars: for anticancer activity against HepG2 (cell viability): 0.15625-10 μM in terms of SN-38 monomer, 48 hours, FIG. 3. It counts as cell-based. As to the method:
Human liver cancer cell lines HepG2 was seeded on 96-well plate in 2×10^4 cells/well. Next day, irinotecan, SN-38 bulk crystal, SN-38 diester dimer nanoparticle, and SN-38 diisocyanate dimer nanoparticle were added to the HepG2 cell culture in an amount to be 0.15625, 0.3125, 0.625, 1.25, 2.5, 5 or 10 μM in terms of SN-38 monomer. After cultivating for 48 hours, the cell viability was measured by a colorimetric method using Cell Counting Kit-8 (manufactured by DOJINDO) and microplate reader (manufactured by BIO-RAD). […] In addition, it became obvious that when SN-38 was dimerized via ester bond or urethane bond, or further nanoparticulated, the anticancer activity thereof can be retained (FIG. 3).
Further, two kinds of aqueous dispersion solution of SN-38 dimer nanoparticles were left at room temperature for about one week, thus prepared aging sample.
In FIG. 3 and FIG. 4, there was no difference in the anticancer activity against HepG2 between the binding modes included in the SN-38 dimer nanoparticles, namely, ester bond and urethane bond. That is, both bonds are expected to be decomposed at about the same speed in the solution, and SN-38 monomers are formed. To confirm this, SN-38 is dimerized with low degradable ether bond, further subjected to aging, then studied the anticancer activity against HepG2. The treatment concentration at this time was made 0.1, 1, 10 μM in terms of SN-38.
On the technique in general: Tetrazolium dyes change colour on reduction, which living cells bring about.

For data set [2] the following is noted: cited from earlier work.
Data set [3] in a line: Particle size of dimer nanoparticles in aqueous dispersion made by reprecipitation. The settings on record: 5 mM DMSO solution injected into water at room temperature, final concentration 0.05 mM. It counts as physicochemical. As to the method: Dimer of SN-38 and succinic acid was weighed out to be 5 mM, and dissolved in DMSO 150 μl. Using water as poor solvent, 100 μl of the DMSO solution was injected into water 10 ml with syringe at room temperature, thus aqueous dispersion solution of dimer nanoparticles was prepared. Final concentration of the aqueous dispersion solution was 0.05 mM. The particle size was 50 nm (FIG. 1).
Dimer of SN-38 and tetramethylene diisocyanate was weighed out to be 5 mM, and dissolved in 150 μl of DMSO. Using water as poor solvent, 100 μl of the DMSO solution was injected into water 10 ml with syringe at room temperature, thus aqueous dispersion solution of dimer nanoparticles was prepared. Final concentration of the aqueous dispersion solution was 0.05 mM. The particle size was 50 nm (FIG. 2).
Dimer of betamethasone valerate and succinic acid was weighed out to be 5 mM, and dissolved in 150 μl of DMSO. Using water as poor solvent, 100 μl of the DMSO solution was injected into water 10 ml with syringe at room temperature, thus aqueous dispersion solution of dimer nanoparticles was prepared. Final concentration of the aqueous dispersion solution was 0.05 mM. The particle size was 150 nm (FIG. 2).

Turning to `CCc1c2c(nc3ccc(O)cc13)-c1cc3c(c(=O)n1C2)COC(=O)[C@]3(O)CC` [SN-38, 10-hydroxy-7-ethylcamptothecin, reference compound], the “anticancer activity against HepG2 (cell viability)” value in data set [1] is “remarkable anticancer activity”. The water-solubility entry in data set [2] is recorded as “extremely poor”.

On to `CCc1c2c(nc3ccc(OC/C=C/COc4ccc5nc6c(c(CC)c5c4)Cn4c-6cc5c(c4=O)COC(=O)C5(O)CC)cc13)-c1cc3c(c(=O)n1C2)COC(=O)C3(O)CC` (centres unmarked) [Compound 18-(d), bis(7-ethylcamptothecin-10-oxy)2-buten ether], for which the “anticancer activity against HepG2” value in data set [1] (0.1, 1, 10 μM in terms of SN-38, FIG. 5) is listed as “almost disappeared”. The “aging effect on anticancer activity against HepG2” value in data set [1] (0.1, 1, 10 μM in terms of SN-38, aged sample, FIG. 5) is “little”.

Turning to `CCCCC(=O)O[C@]1(C(=O)COC(=O)CCC(=O)OCC(=O)[C@@]2(OC(=O)CCCC)[C@@H](C)C[C@H]3[C@@H]4CCC5=CC(=O)C=C[C@]5(C)[C@@]4(F)[C@@H](O)C[C@@]32C)[C@@H](C)C[C@H]2[C@@H]3CCC4=CC(=O)C=C[C@]4(C)[C@@]3(F)[C@@H](O)C[C@@]21C` [Compound 19-(b)], the particle size in data set [3] came to 150 nm.

For `CCc1c2c(nc3ccc(OC(=O)N4CCC(N5CCCCC5)CC4)cc13)-c1cc3c(c(=O)n1C2)COC(=O)[C@]3(O)CC` [irinotecan, 7-ethyl-10-[4-(1-piperidino)-1-piperidino]carbonyloxycamptothecin, reference compound], the “anticancer activity against HepG2 (cell viability)” value in data set [1] is “almost no anticancer activity”.

On to `CC[C@@]1(O)C(=O)OCc2c1cc1n(c2=O)Cc2cc3ccccc3nc2-1` [Camptothecin], for which, in data set [2], the water-solubility entry is on record as “extremely insoluble in water”.

On to `CCc1c2c(nc3ccc(OC(=O)NCCCCNC(=O)Oc4ccc5nc6c(c(CC)c5c4)Cn4c-6cc5c(c4=O)COC(=O)C5(O)CC)cc13)-c1cc3c(c(=O)n1C2)COC(=O)C3(O)CC` (centres unmarked) [Compound 18-(c), butylene bis(7-ethylcamptothecin-10-yl)amide], for which the “anticancer activity against HepG2 (cell viability)” value in data set [1] is recorded as “remarkable anticancer activity”. Also, the particle size in data set [3] was 50 nm.

As to `CCc1c2c(nc3ccc(OC(=O)CCC(=O)Oc4ccc5nc6c(c(CC)c5c4)Cn4c-6cc5c(c4=O)COC(=O)C5(O)CC)cc13)-c1cc3c(c(=O)n1C2)COC(=O)C3(O)CC` (centres unmarked) [Compound 18-(b), succinic acid bis(7-ethylcamptothecin-10-yl)ester], the “anticancer activity against HepG2 (cell viability)” value in data set [1] was “remarkable anticancer activity”. Moreover, in data set [3], the particle size turned out to be 50 nm.
